In patent publication US12031136B2, “Treatment for skeletal diseases caused by intracellular protein trafficking defects” (Oklahoma Medical Research Foundation, priority 2017, dated 2024):
Entries after “also recorded” stand apart in the source; their conditions may differ.

What was measured:
[1] = test system: mutant MBTPS1 transcripts; experiment: Nonsense-mediated mRNA decay test in parental immortalized B cells; assay type: cell-based, human; conditions: cycloheximide 100 μM, 6 hours
Description: (§1) Gene expression analyses with qPCR. Gene expression levels in the patient and irrelevant healthy control immortalized B cells or immortalized fibroblasts were analyzed by qPCR using primers listed in Supplemental Table 3. Total RNA extracted from the cells using Trizol was converted to cDNA using the M-MLV Reverse Transcriptase system. PCR analysis of cDNA was performed with the SYBR Green qPCR system using a CFX96 Real-time system instrument (Bio-Rad). To test for NMD, treatment with cycloheximide (100 μM) was performed by incubating patient's parental immortalized B cells for 6 hours, and then transcripts were analyzed by direct sequencing.

[2] = test system: patient fibroblasts; experiment: Secreted procollagen I ELISA of fibroblast supernatant; assay type: cell-based, human
Description: Measurement of secreted procollagen I. Supernatant from cultured fibroblasts was collected at 48 hours after treatment with AMO and was then diluted 500-fold with PBS (39). Secreted procollagen 1a in diluted samples was measured with an ELISA kit according to the manufacturer's instructions (R&D Systems).

[3] = test system: UPR- and COP-II-related genes; experiment: qRT-PCR of UPR- and COP-II-related genes in patient fibroblasts after AMO; assay type: cell-based, human; conditions: patient fibroblasts treated with AMO
Description: as §1
AMO. The AMO (5′-AGAAAAGCGGGCGATGTTAcCTTCA-3′ [the lowercase “c” represents the mutated base compared to healthy control]) against exon 9 in the maternal mutant transcript containing cryptic splice donor site was designed (Gene Tools Inc.) (38). Forty thousand fibroblasts were seeded onto a 24-well plate. […] After 12, 24, and 48 hours, RNA was extracted for quantitative RT-PCR as well as cloning of MBTPS1 cDNA. The following primer pair was used to quantify a MBTPS1 transcript with 41-bp deletion in exon 9: forward primer targeting the boundary exons 7 and 8, 5′-[…]-3′; reverse primer targeting exon 10, 5′-CTGG-TAGCTCCTTCAAAGTC-3′.

[4] = test system: BBF2H7; experiment: Western blotting of endogenous BBF2H7 cleavage in AMO-treated patient fibroblasts; assay type: cell-based, human; conditions: AMO vs control oligo
Description: (§2) Western blotting. Protein extracts from cultured cells or tissues were prepared using a 1% Triton X-100-based cell lysis buffer. Lysates were applied to an 8%-12% SDS-PAGE gel. Separated proteins were transferred onto an Immobilon-P membrane (Millipore). After blots were blocked, the membranes were incubated with antibodies and were then developed with ECL systems. Exposed X-ray films were scanned and analyzed with ImageJ software (NIH). For protein extraction from cartilage from mouse ribs, proteins from frozen tissues were extracted into 8 M urea lysis buffer using Bead-beater (34) (Biospec Products Inc.). For detecting endogenous GPT in immortalized B cells, 1.5×10^7 cells were suspended in hypotonic lysis buffer and then ultrasonicated for 30 seconds. After removing debris by spinning at 1,000 g for 3 minutes, supernatant was further ultracentrifuged at 100,000 g for 2 hours. The membrane fractions were solubilized with 3% Triton X-100-containing lysis buffer, 150 μg protein was analyzed by Western blotting.
AMO. […] After 12, 24, and 48 hours, RNA was extracted for quantitative RT-PCR as well as cloning of MBTPS1 cDNA. The following primer pair was used to quantify a MBTPS1 transcript with 41-bp deletion in exon 9: forward primer targeting the boundary exons 7 and 8, 5′-[…]-3′; reverse primer targeting exon 10, 5′-CTGG-TAGCTCCTTCAAAGTC-3′.

[5] = test system: MBTPS1 transcripts; experiment: MBTPS1 transcript analysis (qRT-PCR and cloning of exon 9 cDNA) in fibroblasts treated with AMO; assay type: cell-based, human
Description: as §1
AMO. The AMO (5′-AGAAAAGCGGGCGATGTTAcCTTCA-3′ [the lowercase “c” represents the mutated base compared to healthy control]) against exon 9 in the maternal mutant transcript containing cryptic splice donor site was designed (Gene Tools Inc.) (38). Forty thousand fibroblasts were seeded onto a 24-well plate. Introduction of AMO (10 μM) in maternal and patient fibroblasts was carried out using the Endo-Porter (6 μM) peptide delivery system (Gene Tools Inc.). After 12, 24, and 48 hours, RNA was extracted for quantitative RT-PCR as well as cloning of MBTPS1 cDNA. The following primer pair was used to quantify a MBTPS1 transcript with 41-bp deletion in exon 9: forward primer targeting the boundary exons 7 and 8, 5′-[…]-3′; reverse primer targeting exon 10, 5′-CTGG-TAGCTCCTTCAAAGTC-3′.

[6] = Growth hormone replacement therapy in the patient; assay type: in vivo, human; conditions: started, discontinued after 1 year
[7] = test system: maternal and patient fibroblasts; experiment: Lysosomal enzyme secretion and lysosome morphology in fibroblasts treated with S1P inhibitor; assay type: cell-based, human; conditions: maternal and patient fibroblasts treated with PF-429242
[8] = test system: Tango1 and Hsp47; experiment: Western blotting of Sec23a, Tango1 and Hsp47 in fibroblasts; assay type: cell-based, human; conditions: patient fibroblasts treated with S1P inhibitor
Description: as §2

## C[C@@H]1C[C@@H]([C@H](O)CC2CC(=O)NC(=O)C2)C(=O)[C@@H](C)C1 [cycloheximide]
[1]
  mutant MBTPS1 transcripts (NMD inhibition): stabilized

## AMO: Antisense morpholino oligo 5′-AGAAAAGCGGGCGATGTTAcCTTCA-3′ against exon 9 cryptic splice donor site in the maternal mutant MBTPS1 transcript (antisense AGAAAAGCGGGCGATGTTACCTTCA; all phosphorodiamidate morpholino (PMO))
[2]; patient fibroblasts, 48 hours after AMO
  secretion of collagen I (secreted procollagen I): increased
[3]
  expression of UPR- and COP-II-related genes: increased
[4]
  S1P-dependent activation (cleavage) of BBF2H7: improved cleavage; also recorded: increased
[5]; patient cells, compared with control oligo
  41-bp-deleted pathogenic splice variant: substantial decrease
[5]; patient fibroblasts treated with AMO, data not shown
  increase of total MBTPS1 expression: 10 fold
[5]; patient fibroblasts, AMO 10 μM, compared with control oligo
  increase in properly spliced MBTPS1 transcripts: 20 fold
[5]; patient fibroblasts, compared with control oligo treatment
  increase in correctly spliced transcript (cloned exon 9 of MBTPS1 cDNA): 2 fold
[5]; patient fibroblasts, compared with control oligo-treated cells
  increase of absolute maternal transcript with a missense mutation (p.D365G): 20 fold

## Human growth hormone: Human growth hormone replacement therapy given to the patient
[6]
  clinical response (growth): limited response

## PF-429242
[7]
  lysosome size: lysosomal hypertrophy
  secretion of lysosomal enzymes: elevated
[2]; patient fibroblasts treated with S1P inhibitor
  collagen I secretion: impaired
[8]
  Tango1 and Hsp47 protein: further decreased
